Measured values published in patent US11530210B2, “Substituted heteroaromatic pyrazolo-pyridines and their use as GLUN2B receptor modulators” (JANSSEN PHARMACEUTICA NV, priority 2019, dated 2022).
Where a name gives a salt, the structure may show the parent alone.

These molecules were tested against T1, human GluN1/GluN2B NMDA receptors (Homo sapiens, UniProt Q13224) (assay: Calcium flux (FLIPR) assay on cloned human NR1/GluN2B ion channels expressed in mammalian cells (standard and HTS variants)). Details: cells expressing human GluN1/GluN2B, glutamate and glycine co-agonists.
T1 construct: expressed in transfected cells
Type: cell-based
Experimental: Effects of Test Articles on Cloned Human NR1/GuN2B Ion Channels Expressed in Mammalian Cells
NMDA receptors are ion channels that are highly permeable to Ca^2+ ions, rendering it possible to monitor NMDA receptor function using cell-based calcium flux assay. In this assay, co-agonists glutamate and glycine are added to cells heterologously expressing human GluN1/GluN2B NMDA receptors to initiate cellular Ca^2+ influx. The time course of the changes in intracellular calcium is measured using a fluorescent dye and a FLIPR (Fluorometric Imaging Plate Reader) device.
Twenty-four hours before measurements, the expression of the NMDA receptors in the stable cell line is induced with Tet-On inducible system in the presence of a non-selective NMDA receptor blocker. On the day of the experiment, cell culture media is carefully washed, and the cells are loaded with Calcium 5 Dye Kit (Molecular Devices) in dye loading buffer containing 137 mM NaCl, 4 mM KCl, 2 mM CaCl2, 0.5 mM MgCl2 (standard assay) or 1.5 mM MgCl2 (HTS assay), 10 mM HEPES and 5 mM D-glucose; pH 7.4. After 1 h incubation at the room temperature, the dye is washed away with the assay buffer (137 mM NaCl (standard assay) or 150 mM (HTS assay), 4 mM KCl (standard assay) or 3 mM (HTS assay), 2 mM CaCl2), 0.01 mM EDTA, 10 mM HEPES and 5 mM D-glucose; pH 7.4) In the FLIPR TETRA reader, various concentrations of the test compounds are added to the cells for 5 min while fluorescence is monitored to detect potential agonist activity. Next, co-agonists, glutamate and glycine are added for another 5 minutes. The concentration of glutamate corresponding to ˜EC40 (standard assay) or EC40 (HTS assay) is used to maximize the assay's signal window and ability to detect NMDA receptor antagonists and negative allosteric modulators. A saturating concentration (10 μM) of glycine is also present in the assay. A non-selective NMDA receptor antagonist, (+)MK-801 is used as a positive control for antagonist activity. The fluorescent signal in the presence of test compounds is quantified and normalized to the signal defined by the appropriate control wells.

T1 sequence (Q13224 27-1484, other chains not shown): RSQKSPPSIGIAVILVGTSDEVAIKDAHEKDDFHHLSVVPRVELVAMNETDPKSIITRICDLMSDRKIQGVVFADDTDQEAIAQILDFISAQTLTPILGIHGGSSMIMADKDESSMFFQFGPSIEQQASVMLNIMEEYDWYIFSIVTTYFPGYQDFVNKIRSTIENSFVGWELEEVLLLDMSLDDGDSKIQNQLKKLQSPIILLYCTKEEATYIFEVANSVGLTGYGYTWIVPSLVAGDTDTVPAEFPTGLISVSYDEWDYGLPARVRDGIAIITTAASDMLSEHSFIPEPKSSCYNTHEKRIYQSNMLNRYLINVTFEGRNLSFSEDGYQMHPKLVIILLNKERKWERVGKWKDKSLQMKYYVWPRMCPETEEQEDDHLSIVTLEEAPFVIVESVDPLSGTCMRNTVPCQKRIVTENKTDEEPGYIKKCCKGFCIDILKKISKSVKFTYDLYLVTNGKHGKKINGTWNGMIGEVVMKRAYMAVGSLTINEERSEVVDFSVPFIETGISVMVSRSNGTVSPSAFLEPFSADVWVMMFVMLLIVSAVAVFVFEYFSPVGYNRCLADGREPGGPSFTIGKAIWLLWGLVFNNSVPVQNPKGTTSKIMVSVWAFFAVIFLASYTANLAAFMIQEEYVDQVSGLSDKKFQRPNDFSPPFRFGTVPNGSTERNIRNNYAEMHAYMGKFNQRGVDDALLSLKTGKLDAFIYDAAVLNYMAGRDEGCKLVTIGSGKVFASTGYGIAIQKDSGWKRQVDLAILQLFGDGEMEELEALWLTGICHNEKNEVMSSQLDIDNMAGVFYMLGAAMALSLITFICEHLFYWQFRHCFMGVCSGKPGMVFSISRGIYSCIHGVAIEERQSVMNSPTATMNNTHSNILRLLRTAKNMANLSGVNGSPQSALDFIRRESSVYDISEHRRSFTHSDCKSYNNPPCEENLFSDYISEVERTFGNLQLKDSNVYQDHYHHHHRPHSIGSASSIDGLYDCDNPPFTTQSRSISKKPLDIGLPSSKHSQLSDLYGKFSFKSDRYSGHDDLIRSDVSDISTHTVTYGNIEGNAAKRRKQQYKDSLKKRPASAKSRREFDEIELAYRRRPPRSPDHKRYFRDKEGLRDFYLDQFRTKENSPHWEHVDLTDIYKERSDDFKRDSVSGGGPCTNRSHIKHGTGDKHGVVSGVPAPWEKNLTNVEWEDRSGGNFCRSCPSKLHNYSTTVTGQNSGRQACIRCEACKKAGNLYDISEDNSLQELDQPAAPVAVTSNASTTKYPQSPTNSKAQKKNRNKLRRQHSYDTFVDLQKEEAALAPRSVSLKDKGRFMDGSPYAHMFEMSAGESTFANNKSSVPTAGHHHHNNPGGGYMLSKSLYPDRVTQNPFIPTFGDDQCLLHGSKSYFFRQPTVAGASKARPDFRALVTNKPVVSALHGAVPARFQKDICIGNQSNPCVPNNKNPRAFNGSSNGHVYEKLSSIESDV

First: FC(F)(F)c1cccc(-c2cnc3cnn(Cc4ncccn4)c3c2)c1 [Example 1, 1-(Pyrimidin-2-ylmethyl)-6-[3-(trifluoromethyl)phenyl]pyrazolo[4,3-b]pyridine]
Second: FC(F)(F)c1cccc(-c2cnc3cnn(Cc4cnccn4)c3c2)c1 [Example 5, 1-(Pyrazin-2-ylmethyl)-6-[3-(trifluoromethyl)phenyl]pyrazolo[4,3-b]pyridine dihydrochloride salt]
The IC50 of the first is 3.4-fold higher: 800 nM for the first, 237 nM for the second. The second is the more potent here.

FC(F)(F)c1cccc(-c2cnc3cnn(Cc4cncc(Br)c4)c3c2)c1 [Example 2, 1-[(5-Bromo-3-pyridyl)methyl]-6-[3-(trifluoromethyl)phenyl]pyrazolo[4,3-b]pyridine] and N#Cc1cncc(Cn2ncc3ncc(-c4cccc(C(F)(F)F)c4)cc32)c1 [Example 3, 5-[[6-[3-(Trifluoromethyl)phenyl]pyrazolo[4,3-b]pyridin-1-yl]methyl]pyridine-3-carbonitrile] are within 1.5-fold of each other in IC50: 329 nM for the first, 483 nM for the second.

Going from Cc1ncc(Cn2ncc3ncc(-c4cccc(C(F)(F)F)c4)cc32)cn1 [Example 4, 1-[(2-Methylpyrimidin-5-yl)methyl]-6-[3-(trifluoromethyl)phenyl]pyrazolo[4,3-b]pyridine trifluoroacetate salt] to FC(F)(F)c1cccc(-c2cnc3cnn(Cc4ncon4)c3c2)c1 [Example 20, 3-[[6-[3-(Trifluoromethyl)phenyl]pyrazolo[4,3-b]pyridin-1-yl]methyl]-1,2,4-oxadiazole], the IC50 falls from 4670 nM to 751 nM (6.2-fold).

FC(F)(F)c1cccc(-c2cnc3cnn(Cc4ccncn4)c3c2)c1 [Example 6, 1-(Pyrimidin-4-ylmethyl)-6-[3-(trifluoromethyl)phenyl]pyrazolo[4,3-b]pyridine hydrochloride salt] and FC(F)(F)c1cccc(-c2cnc3cnn(Cc4nnco4)c3c2)c1 [Example 7, 2-[[6-[3-(Trifluoromethyl)phenyl]pyrazolo[4,3-b]pyridin-1-yl]methyl]-1,3,4-oxadiazole] are within 1.5-fold of each other in IC50: 819 nM for the first, 748 nM for the second.

Going from Cc1cnc(Cn2ncc3ncc(-c4ccc(F)c(C)c4F)cc32)o1 [Example 9, 2-[[6-(2,4-Difluoro-3-methyl-phenyl)pyrazolo[4,3-b]pyridin-1-yl]methyl]-5-methyl-oxazole] to Cc1nnc(Cn2ncc3ncc(-c4ccc(F)c(C(F)F)c4)cc32)[nH]1 [Example 13, 6-[3-(Difluoromethyl)-4-fluoro-phenyl]-1-[(5-methyl-4H-1,2,4-triazol-3-yl)methyl]pyrazolo[4,3-b]pyridine], the IC50 rises from 78 nM to 1960 nM (25-fold).

Fc1ccc(-c2cnc3cnn(Cc4cn[nH]c4)c3c2)cc1OC(F)F [Example 11, 6-[3-(Difluoromethoxy)-4-fluoro-phenyl]-1-(1H-pyrazol-4-ylmethyl)pyrazolo[4,3-b]pyridine] and Fc1cc(F)cc(Cn2ncc3ncc(-c4ccc(F)c(OC(F)F)c4)cc32)c1 [Example 30, 6-[3-(Difluoromethoxy)-4-fluoro-phenyl]-1-[(3,5-difluorophenyl)methyl]pyrazolo[4,3-b]pyridine] are within 1.5-fold of each other in IC50: 486 nM for the first, 536 nM for the second.

First: Cc1cc(Cn2ncc3ncc(-c4cccc(C(F)(F)F)c4)cc32)[nH]n1 [Example 14, 1-[(3-Methyl-1H-pyrazol-5-yl)methyl]-6-[3-(trifluoromethyl)phenyl]pyrazolo[4,3-b]pyridine]
Second: Fc1cccc(Cn2ncc3ncc(-c4cccc(C(F)(F)F)c4)cc32)c1 [Example 22, 1-[(3-Fluorophenyl)methyl]-6-[3-(trifluoromethyl)phenyl]pyrazolo[4,3-b]pyridine hydrochloride salt]
The IC50 of the first is 2.6-fold higher: 4740 nM for the first, 1820 nM for the second. The second is the more potent here.

CNc1nnc(Cn2ncc3ncc(-c4ccc(F)c(OC(F)F)c4)cc32)s1 [Example 15, 5-[[6-[3-(Difluoromethoxy)-4-fluoro-phenyl]pyrazolo[4,3-b]pyridin-1-yl]methyl]-N-methyl-1,3,4-thiadiazol-2-amine] and CC(=O)Nc1nnc(Cn2ncc3ncc(-c4ccc(F)c(OC(F)F)c4)cc32)s1 [Example 19, N-(5-((6-(3-(Difluoromethoxy)-4-fluorophenyl)-1H-pyrazolo[4,3-b]pyridin-1-yl)methyl)-1,3,4-thiadiazol-2-yl)acetamide] cannot be ordered by IC50: over 2990 nM for the first, over 2990 nM for the second.

Compared with Nc1nnc(Cn2ncc3ncc(-c4ccc(F)c(C(F)F)c4)cc32)s1 [Example 16, 5-[[6-[3-(difluoromethyl)-4-fluoro-phenyl]pyrazolo[4,3-b]pyridin-1-yl]methyl]-1,3,4-thiadiazol-2-amine], Oc1nnc(Cn2ncc3ncc(-c4ccc(F)c(C(F)F)c4)cc32)s1 [Example 17, 5-[[6-[3-(Difluoromethyl)-4-fluoro-phenyl]pyrazolo[4,3-b]pyridin-1-yl]methyl]-1,3,4-thiadiazol-2-ol] is 16-fold lower in IC50: 1050 nM for the first, 64 nM for the second. The second is the more potent here.

Compared with Nc1nnc(Cn2ncc3ncc(-c4ccc(F)c(OC(F)F)c4)cc32)s1 [Example 18, 5-[[6-[3-(Difluoromethoxy)-4-fluoro-phenyl]pyrazolo[4,3-b]pyridin-1-yl]methyl]-1,3,4-thiadiazol-2-amine], N#Cc1cccc(Cn2ncc3ncc(-c4ccc(F)c(OC(F)F)c4)cc32)c1 [Example 29, 3-[[6-[3-(Difluoromethoxy)-4-fluoro-phenyl]pyrazolo[4,3-b]pyridin-1-yl]methyl]benzonitrile] is 55-fold lower in IC50: 3550 nM for the first, 65 nM for the second. The second is the more potent here.

First: FC(F)(F)c1cccc(-c2cnc3cnn(Cc4ccccc4)c3c2)c1 [Example 21, 1-Benzyl-6-[3-(trifluoromethyl)phenyl]pyrazolo[4,3-b]pyridine hydrochloride salt]
Second: N#Cc1cccc(Cn2ncc3ncc(-c4cccc(C(F)(F)F)c4)cc32)c1 [Example 23, 3-[[6-[3-(Trifluoromethyl)phenyl]pyrazolo[4,3-b]pyridin-1-yl]methyl]benzonitrile]
The IC50 of the first is 8.2-fold higher: 3280 nM for the first, 400 nM for the second. The second is the more potent here.

Compared with COc1ccc(Cn2ncc3ncc(-c4cccc(C(F)(F)F)c4)cc32)cc1 [Example 24, 1-[(4-Methoxyphenyl)methyl]-6-[3-(trifluoromethyl)phenyl]pyrazolo[4,3-b]pyridine hydrochloride salt], FC(F)(F)c1ccc(Cn2ncc3ncc(-c4cccc(C(F)(F)F)c4)cc32)cc1 [Example 25, 6-[3-(Trifluoromethyl)phenyl]-1-[[4-(trifluoromethyl)phenyl]methyl]pyrazolo[4,3-b]pyridine hydrochloride salt] is higher in IC50: 7930 nM for the first, over 10000 nM for the second. The first is the more potent here.

Compared with N#Cc1cccc(Cn2ncc3ncc(-c4ccc(F)c(C(F)F)c4)cc32)c1 [Example 26, 3-[[6-[3-(Difluoromethyl)-4-fluoro-phenyl]pyrazolo[4,3-b]pyridin-1-yl]methyl]benzonitrile], N#Cc1cc(F)cc(Cn2ncc3ncc(-c4ccc(F)c(C(F)F)c4)cc32)c1 [Example 28, 3-[[6-[3-(Difluoromethyl)-4-fluoro-phenyl]pyrazolo[4,3-b]pyridin-1-yl]methyl]-5-fluoro-benzonitrile] is 2-fold higher in IC50: 62 nM for the first, 125 nM for the second. The first is the more potent here.

Fc1cc(F)cc(Cn2ncc3ncc(-c4ccc(F)c(C(F)F)c4)cc32)c1 [Example 27, 6-[3-(Difluoromethyl)-4-fluoro-phenyl]-1-[(3,5-difluorophenyl)methyl]pyrazolo[4,3-b]pyridine] and N#Cc1cc(F)cc(Cn2ncc3ncc(-c4ccc(F)c(OC(F)F)c4)cc32)c1 [Example 31, 3-[[6-[3-(Difluoromethoxy)-4-fluoro-phenyl]pyrazolo[4,3-b]pyridin-1-yl]methyl]-5-fluoro-benzonitrile] are within 1.5-fold of each other in IC50: 394 nM for the first, 389 nM for the second.
